Experimental findings from patent publication EP4345092A1, “NITROBENZAMIDE COMPOUNDS, METHODS AND USES THEREOF” (Faculdade de Farmácia da Universidade de Lisboa, priority 2022, dated 2024) are described below.

In brackets after ≈: the same amount, converted by molar mass. Several values for one entry are separate records, joined by “and”; a condition that tells them apart may be missing. Equal entries are not always repeated. Where two headings read alike, the source gives them in different places.

For test [1], the system named is Mycobacterium tuberculosis H37Rv (ATCC 27294). As to the kind of experiment: Minimum Inhibitory Concentration (MIC), broth microdilution in 96-well plates. The class given is cell-based. A general note: Dilution methods test growth across graded concentrations, often in twofold steps.
Test [2] has the same test system. Description: microbe, parasite or virus in culture. The class given is cell-based. Conditions: 504 h.

What is called MIC is the lowest concentration that inhibits growth of the organism. For `O=C(NCCOc1ccc(-c2ccccc2)cc1)c1cc([N+](=O)[O-])cc([N+](=O)[O-])c1` [Compound 1], in test [1], the MIC was 0.063 µg/mL and 0.155 µM. For the compound `O=C(NCCOc1ccc(Br)cc1)c1cc([N+](=O)[O-])cc([N+](=O)[O-])c1` [Compound 5], the MIC in test [1] is 0.063 µg/mL and 0.154 µM. Turning to `O=C(NCCOc1ccc(C(F)(F)F)cc1)c1cc([N+](=O)[O-])cc([N+](=O)[O-])c1` [Compound 6], the MIC in test [1] is 0.125 µg/mL and 0.313 µM. As for `O=C(NCCOc1ccc(Cc2ccccc2)cc1)c1cc([N+](=O)[O-])cc([N+](=O)[O-])c1` [Compound 7], the MIC in test [1] was 0.063 µg/mL and 0.149 µM. As to `O=C(NCCCOc1ccc(-c2ccccc2)cc1)c1cc([N+](=O)[O-])cc([N+](=O)[O-])c1` [Compound 8, N-(3-(4-phenylphenoxy)propyl)-3,5-dinitrobenzamide], the MIC in test [1] is 0.063 µg/mL and 0.149 µM. The compound further yielded an MBC in test [2] of 0.125 µg/mL (≈ 0.297 µM).

Turning to `COc1ccc(OCCCNC(=O)c2cc([N+](=O)[O-])cc([N+](=O)[O-])c2)cc1` [Compound 9, N-(3-(4-methoxyphenoxy)propyl)-3,5-dinitrobenzamide], the MIC in test [1] is 0.063 µg/mL and 0.168 µM. Moreover, the MBC in test [2] came out at 0.125 µg/mL (≈ 0.333 µM). On to `O=C(NCCCOc1ccc(OC(F)(F)F)cc1)c1cc([N+](=O)[O-])cc([N+](=O)[O-])c1` [Compound 10, N-(3-(4-trifluoromethoxyphenoxy)propyl)-3,5-dinitrobenzamide], for which, in test [1], the MIC was 0.063 µg/mL and 0.147 µM. The compound also yielded an MBC in test [2] of 0.25 µg/mL (≈ 0.582 µM). For `O=C(NCCCOc1ccc(F)cc1)c1cc([N+](=O)[O-])cc([N+](=O)[O-])c1` [Compound 11, N-(3-(4-fluorophenoxy)propyl)-3,5-dinitrobenzamide], the MIC in test [1] is 0.063 µg/mL and 0.173 µM. The MBC in test [2] was found to be 0.125 µg/mL (≈ 0.344 µM).

Consider `O=C(NCCCOc1ccc(C(F)(F)F)cc1)c1cc([N+](=O)[O-])cc([N+](=O)[O-])c1` [Compound 12, N-(3-(4-trifluoromethylphenoxy)propyl)-3,5-dinitrobenzamide], for which the MIC in test [1] is 0.125 µg/mL and 0.302 µM.

In the case of `O=C(NCCCOc1ccccc1)c1cc([N+](=O)[O-])cc([N+](=O)[O-])c1` [Compound 13, N-(3-(phenoxy)propyl)-3,5-dinitrobenzamide], the MIC in test [1] is 0.063 µg/mL and 0.182 µM. For the same compound, the MBC in test [2] was 0.125 µg/mL (≈ 0.362 µM). On to `O=C(NCCCCCOc1ccc(-c2ccccc2)cc1)c1cc([N+](=O)[O-])cc([N+](=O)[O-])c1` [Compound 14, N-(5-(4-phenylphenoxy)pentyl)-3,5-dinitrobenzamide], for which, in test [1], the MIC was 0.063 µg/mL and 0.14 µM. The same compound came in with an MBC in test [2] of 0.125 µg/mL (≈ 0.278 µM). With `COc1ccc(OCCCCCNC(=O)c2cc([N+](=O)[O-])cc([N+](=O)[O-])c2)cc1` [Compound 15, N-(5-(4-methoxyphenoxy)pentyl)-3,5-dinitrobenzamide], the MIC in test [1] was 0.063 µg/mL and 0.156 µM. The MBC in test [2] worked out at 0.125 µg/mL (≈ 0.31 µM).

With `O=C(NCCCCCOc1ccc(OC(F)(F)F)cc1)c1cc([N+](=O)[O-])cc([N+](=O)[O-])c1` [Compound 16, N-(5-(4-trifluoromethoxyphenoxy)pentyl)-3,5-dinitrobenzamide], in test [1], the MIC is 0.031 µg/mL and 0.0678 µM. The same compound gave an MBC in test [2] of 0.063 µg/mL (≈ 0.138 µM). With `O=C(NCCCCCOc1ccc([N+](=O)[O-])cc1)c1cc([N+](=O)[O-])cc([N+](=O)[O-])c1` [Compound 17, N-(5-(4-nitrophenoxy)pentyl)-3,5-dinitrobenzamide], the MIC in test [1] is 0.031 µg/mL and 0.0741 µM. The MBC in test [2] was found to be 0.125 µg/mL (≈ 0.299 µM). On to `O=C(NCCCCCOc1ccc(F)cc1)c1cc([N+](=O)[O-])cc([N+](=O)[O-])c1` [Compound 18, N-(5-(4-fluorophenoxy)pentyl)-3,5-dinitrobenzamide], for which, in test [1], the MIC was 0.031 µg/mL and 0.0792 µM. Besides, the MBC in test [2] stood at 0.063 µg/mL (≈ 0.161 µM). For `O=C(NCCCCCOc1ccc(Cl)cc1)c1cc([N+](=O)[O-])cc([N+](=O)[O-])c1` [Compound 19, N-(5-(4-chlorophenoxy)pentyl)-3,5-dinitrobenzamide], the MIC in test [1] was 0.016 µg/mL and 0.0392 µM. The MBC in test [2] was 0.063 µg/mL (≈ 0.154 µM).

Consider `O=C(NCCCCCOc1ccc(C(F)(F)F)cc1)c1cc([N+](=O)[O-])cc([N+](=O)[O-])c1` [Compound 20, N-(5-(4-trifluoromethylphenoxy)pentyl)-3,5-dinitrobenzamide], for which, in test [1], the MIC is 0.031 µg/mL and 0.0702 µM. The compound further yielded an MBC in test [2] of 0.063 µg/mL (≈ 0.143 µM).

On to `O=C(NCCCCCOc1ccc(Cc2ccccc2)cc1)c1cc([N+](=O)[O-])cc([N+](=O)[O-])c1` [Compound 21, N-(5-(4-benzylphenoxy)pentyl)-3,5-dinitrobenzamide], for which the MIC in test [1] was 0.063 µg/mL and 0.136 µM. The compound also returned an MBC in test [2] of 0.25 µg/mL (≈ 0.539 µM). In the case of `O=C(NCCCCCOc1ccc(Br)cc1)c1cc([N+](=O)[O-])cc([N+](=O)[O-])c1` [Compound 22, N-(5-(4-bromophenoxy)pentyl)-3,5-dinitrobenzamide], in test [1], the MIC is 0.031 µg/mL and 0.0685 µM. Moreover, the MBC in test [2] amounted to 0.063 µg/mL (≈ 0.139 µM).

Consider `O=C(NCCCCCOc1ccccc1)c1cc([N+](=O)[O-])cc([N+](=O)[O-])c1` [Compound 23, N-(5-(phenoxy)pentyl)-3,5-dinitrobenzamide], for which the MIC in test [1] is 0.031 µg/mL and 0.083 µM. This compound also gave an MBC in test [2] of 0.063 µg/mL (≈ 0.169 µM). Regarding `COc1ccc(OCCCCCCCCCNC(=O)c2cc([N+](=O)[O-])cc([N+](=O)[O-])c2)cc1` [Compound 24, N-(9-(4-methoxyphenoxy)nonyl)-3,5-dinitrobenzamide], the MIC in test [1] was 0.016 µg/mL and 0.0348 µM. Besides, the MBC in test [2] came out at 0.031 µg/mL (≈ 0.0675 µM).

`COc1ccc(OCCCCCCCCCCCNC(=O)c2cc([N+](=O)[O-])cc([N+](=O)[O-])c2)cc1` [Compound 26, N-(11-(4-methoxyphenoxy)undecyl)-3,5-dinitrobenzamide]: the MIC in test [1] is 0.063 µg/mL and 0.129 µM. This compound also had an MBC in test [2] of 0.125 µg/mL (≈ 0.256 µM). Compound `C[N+]1(C)CCN(C(=O)c2cc([N+](=O)[O-])cc([N+](=O)[O-])c2)CC1` [Compound 28, 4-(3,5-dinitrobenzoyl)-1,1-dimethylpiperazin-1-ium] returned an MIC in test [1] greater than 16 µg/mL. The compound further registered an MBC in test [2] greater than 16 µg/mL.

On to `O=C(c1cc([N+](=O)[O-])cc([N+](=O)[O-])c1)N1CCN(Cc2ccccc2)CC1` [Compound 29, (3,5-dinitrophenyl)-4-benzylpiperazin-1-yl-methanone], for which, in test [1], the minimal inhibitory concentration (MIC) was 2 µg/mL and 5.4 µM. The same compound returned an MBC in test [2] of 4 µg/mL (≈ 10.8 µM).

With `O=C(c1cc([N+](=O)[O-])cc([N+](=O)[O-])c1)N1CCC(Cc2ccccc2)CC1` [Compound 31, (3,5-dinitrophenyl)-4-benzylpiperidin-1-yl-methanone], the MIC in test [1] is 0.5 µg/mL and 1.35 µM. This compound also returned an MBC in test [2] of 2 µg/mL (≈ 5.41 µM). Take `COc1ccc(OC2CCN(C(=O)c3cc([N+](=O)[O-])cc([N+](=O)[O-])c3)CC2)cc1` [Compound 32, (3,5-dinitrophenyl)(4-(4-methoxyphenoxy)piperidin-1-yl)methanone]: in test [1], the MIC is 2 µg/mL and 4.98 µM. In turn, `O=C(c1cc([N+](=O)[O-])cc([N+](=O)[O-])c1)N1CCC(O)CC1` [Compound 33, (3,5-dinitrophenyl)-4-hydroxypiperidin-1-yl-methanone] yielded an MIC in test [1] greater than 16 µg/mL. The compound also registered an MBC in test [2] of 16 µg/mL (≈ 54.2 µM).

Compound `O=C(c1cc([N+](=O)[O-])cc([N+](=O)[O-])c1)N1CCCCC1` [Compound 34, (3,5-dinitrophenyl)-piperidin-1-yl-methanone] registered a minimal inhibitory concentration (MIC) in test [1] greater than 16 µg/mL. Moreover, in test [2], the MBC came to 16 µg/mL (≈ 57.3 µM). Taken in the same sequence, the figures for `O=C(c1cc([N+](=O)[O-])cc([N+](=O)[O-])c1)N1CCOCC1` [Compound 35, (3,5-dinitrophenyl)(morpholino)methanone] were greater than 16 µg/mL and greater than 16 µg/mL.

Turning to `CCCCCCCCCOCCCCCCCCCNC(=O)c1cc([N+](=O)[O-])cc([N+](=O)[O-])c1` [Compound 36, N-(9-(nonyloxy)nonyl)-3,5-dinitrobenzamide], in test [1], the MIC is 0.063 µg/mL and 0.127 µM.

For the compound `O=C(NCCCCCCCCCO)c1cc([N+](=O)[O-])cc([N+](=O)[O-])c1` [Compound 37, N-(9-hydroxynonyl)-3,5-dinitrobenzamide], the MIC in test [1] is 0.25 µg/mL and 0.707 µM. Turning to `O=C(NCCCCCO)c1cc([N+](=O)[O-])cc([N+](=O)[O-])c1` [Compound 38, N-(5-hydroxypentyl)-3,5-dinitrobenzamide], in test [1], the MIC is 2 µg/mL and 6.73 µM. Same read-out and setting: as for `O=C(NCCCO)c1cc([N+](=O)[O-])cc([N+](=O)[O-])c1` [Compound 39, N-(3-hydroxypropyl)-3,5-dinitrobenzamide], the figure is 4 µg/mL and 14.9 µM.

For `O=C(NCCO)c1cc([N+](=O)[O-])cc([N+](=O)[O-])c1` [Compound 40, N-(2-hydroxyethyl)-3,5-dinitrobenzamide], the MIC in test [1] is 16 µg/mL and 62.7 µM.

`O=C(NCCCCCCCCCCCO)c1cc([N+](=O)[O-])cc([N+](=O)[O-])c1` [Compound 41, N-(11-hydroxyundecyl)-3,5-dinitrobenzamide]: in test [1], the MIC was 0.125 µg/mL and 0.328 µM. The compound also yielded an MBC in test [2] of 0.25 µg/mL (≈ 0.655 µM). For `O=C(NCCOc1ccccc1)c1cc([N+](=O)[O-])cc(C(F)(F)F)c1` [Compound 42], the MIC in test [1] (M. tuberculosis H37Rv, 10th day of incubation, concentration with no visible turbidity, read-out: MIC) worked out at 0.25 µg/mL; in test [1] (M. tuberculosis H37Rv, 10th day of incubation, same MIC expressed in nM, read-out: MIC), 671 nM.

In the case of `O=C(NCCCCCN1CCCCC1)c1cc([N+](=O)[O-])cc([N+](=O)[O-])c1` [Compound 44], in test [1], the MIC is 16 µg/mL and 43.9 µM. This compound displayed an MBC in test [2] greater than 16 µg/mL. Take `O=[N+]([O-])c1cc(C2=NCCO2)cc([N+](=O)[O-])c1` [Compound 47, 2-(3,5-dinitrophenyl)-4,5-dihydrooxazole]: the minimum inhibitory concentration (MIC) in test [1] was 2 µg/mL and 8.43 µM. In test [2], this compound came in with an MBC of 4 µg/mL (≈ 16.9 µM).

For `O=[N+]([O-])c1cc(C2=NCCCO2)cc([N+](=O)[O-])c1` [Compound 48, 2-(3,5-dinitrophenyl)-5,6-dihydro-4H-1,3-oxazine], the MIC in test [1] is 16 µg/mL and 63.7 µM. This compound also displayed an MBC in test [2] greater than 16 µg/mL.
